Data: US20220251625A1, “NOVEL DIAGNOSTIC MARKER FOR PANCREATIC CANCER” (URTESTE S.A., priority 2019, published 2022)
“And” between values parts separate entries of the source, which are not always exact repeats. Equal values may be shown once. Numbered stars: 1 amine (or outer) side, 2 acyl side, 3 side chain; on linkers, the order of the positions; unused ones are H or OH. Square brackets hold non-standard residues; d marks the D form. Ends that are not written are not given here. Benzoyl(5-NH,2-NO2) = O=C(c1cc(N[*:1])ccc1[N+](=O)[O-])[*:2]; 2Abz = Nc1ccccc1C(=O)O

Columns and labels:
Assay type in all cases: biochemical, human
[1] = tested on: proteolytic enzymes in urine; assay: RP HPLC analysis of substrate hydrolysis in urine of a person diagnosed with pancreatic cancer; conditions: urine from a person diagnosed with pancreatic cancer
Method: A: ABZ-Thr-Thr-Ala-Arg-ANB NH2 substrate in 200 mM Tris-HCl buffer, pH 8.0. B: Hydrolysis of ABZ-Thr-Thr-Ala-Arg-ANB NH2 substrate in urine of patients diagnosed with pancreatic cancer.

[2] = tested on: proteolytic enzymes in urine; assay: Hydrolysis of chromogenic peptide substrate in urine samples, absorbance at 405 nm; set-up: rate of hydrolysis of substrate: unit not given here; conditions: for rate of hydrolysis of substrate: triplicate, 37° C., pH 8.0, 405 nm
Method: Arabic numbers indicate the number of the selected urine sample. […] The result indicates the absence of proteolytic enzymes characteristic of pancreatic cancer.
Arabic numbers indicate the number of the selected urine sample. A similar result as described above for FIG. 1 is obtained.
The study on the application of new compounds was performed on a group of 10 patients diagnosed with pancreatic cancer. For this purpose, the compound with formula 2: ABZ-Thr-Thr-Ala-Arg-ANB-NH2 or formula 3: ABZ-Thr-Thr-Ala-Arg-pNA was dissolved in dimethyl sulfoxide (at a concentration of 0.5 mg/mL); 50 μL of this solution was mixed with 120 μl buffer (200 mM Tris-HCl, pH 8.0) and 80 μL of urine of a person with pancreatic cancer. The measurement was made in a 96-well plate designed for measuring absorbance, and each sample was analysed in triplicate at 37° C. The duration of the measurement was 60 minutes. During the measurement, the wavelength characteristic of the released chromophore (ANB-NH2 or pNA) was monitored at 405 nm (range 380-430 nm).
As a result of the measurement, the colour of the solution increased over time in all urine samples from patients diagnosed with pancreatic cancer. The observed absorbance increase over time was different for each of the tested samples.

[3] = tested on: proteolytic enzymes in urine; assay: as above; conditions: urine samples from healthy individuals (15 samples)
[4] = tested on: proteolytic enzymes in urine; assay: Degree of substrate hydrolysis versus pH of the reaction environment; set-up: degree of substrate hydrolysis: unit not given here; conditions: for degree of substrate hydrolysis: triplicate
Method: Tested pH values are indicated on the x-axis. The relationship between proteolytic activity and pH of reaction environment was assessed.

[5] = urine sample 1, patient diagnosed with pancreatic cancer
[6] = urine sample 3, patient diagnosed with pancreatic cancer
[7] = urine sample 4, patient diagnosed with pancreatic cancer
[8] = urine sample 5, patient diagnosed with pancreatic cancer
[9] = urine sample 6, patient diagnosed with pancreatic cancer
[10] = urine sample 7, patient diagnosed with pancreatic cancer
[11] = urine sample 8, patient diagnosed with pancreatic cancer
[12] = urine sample 9, patient diagnosed with pancreatic cancer
[13] = urine sample 10, patient diagnosed with pancreatic cancer

| Substance | cleavage products by RP HPLC [1] | rate of hydrolysis of substrate [2, 5] | rate of hydrolysis of substrate [2, 6] | rate of hydrolysis of substrate [2, 7] | rate of hydrolysis of substrate [2, 8] | rate of hydrolysis of substrate [2, 9] | rate of hydrolysis of substrate [2, 10] | rate of hydrolysis of substrate [2, 11] | rate of hydrolysis of substrate [2, 12] | rate of hydrolysis of substrate [2, 13] | other results |
| --- | --- | --- | --- | --- | --- | --- | --- | --- | --- | --- | --- |
| ABZ-Thr-Thr-Ala-Arg-ANB-NH2 ([2Abz]TTAR-{Benzoyl(5-NH,2-NO2)-NH2}) [chromogenic peptide; ABZ is 2-aminobenzoic acid, ANB-NH2 is amide of 5-amino-2-nitrobenzoic acid] | break down into the ABZ-Thr-Thr-Ala-Arg peptide fragment and chromophore | 0.128 and 0.152 and 0.2109 | 0.07457 and 0.07826 and 0.07178 | 0.03727 and 0.03636 and 0.03044 | 0.02734 and 0.01944 and 0.02312 | 0.04416 and 0.04476 and 0.04487 | 0.02666 and 0.02332 and 0.025 | 0.02045 and 0.02486 and 0.02345 | 0.00647 and 0.00797 and 0.00596 | 0.08668 and 0.1146 and 0.08522 | hydrolysis of the substrate / increase of colour (absorbance) over time ([2]; urine of patients diagnosed with pancreatic cancer (samples 1-10)): all samples 1-10 disintegrated; increase in absorbance (hydrolysis of the test compound) [3]: does not lead to an increase in absorbance; relationship between proteolytic activity and pH of reaction environment [4]: maximum activity at alkaline pH; degree of substrate hydrolysis ([4]; pH 3): 0; degree of substrate hydrolysis ([4]; pH 4): 0; degree of substrate hydrolysis ([4]; pH 5): 0; degree of substrate hydrolysis ([4]; pH 6): 0; degree of substrate hydrolysis ([4]; pH 7): 0; degree of substrate hydrolysis ([4]; pH 8): 0.07661 and 0.07534 and 0.09735; degree of substrate hydrolysis ([4]; pH 9): 0 |
| ABZ-Thr-Thr-Ala-Arg-pNA | break down into the ABZ-Thr-Thr-Ala-Arg peptide fragment and chromophore | 0.22 and 0.189 and 0.2109 | 0.01632 and 0.01669 and 0.01723 | 0.01727 and 0.01636 and 0.01044 | 0.05734 and 0.05944 and 0.06152 | 0.05416 and 0.05476 and 0.05487 | 0.02666 and 0.02332 and 0.025 | 0.02045 and 0.02486 and 0.02345 | 0.01947 and 0.01797 and 0.01896 | 0.1167 and 0.1146 and 0.1052 | rate of hydrolysis of substrate ([2]; urine sample 2, patient diagnosed with pancreatic cancer): 0.07457 and 0.07826 and 0.07178 |
